Patent US4174406A, “Terpenylaminoalkanol fish toxicants” (priority 1977, dated 1979)
Values after ≈ are worked out from the molar mass of the structure shown.

What was measured:
Snail (Pleurecera sp.) = test: Static bioassay in invertebrates (Table 2); assay type: in vivo; conditions: tech, 17 C, limed spring water 22-36 mg/l hardness
Procedure: (§1) The effect of the various toxicants on common invertebrate species was determined in a static test conducted 17° C. The invertebrates tested were collected from natural populations or purchased from commercial suppliers. They were held in soft water in fiberglass tanks in the laboratory or in outdoor plastic swimming pools. Mortality was observed during holding, and only healthy organisms were used for the toxicity tests. At least 10 organisms of nine species were exposed to each concentration in static tests.

Water flea = test: Static bioassay in invertebrates (Table 2); assay type: in vivo; conditions: Daphnia magna, tech, 17 C, limed spring water 22-36 mg/l hardness
Procedure: as §1

Seed shrimp or ostracod = test: Static bioassay in invertebrates (Table 2); assay type: in vivo; conditions: tech, 17 C, limed spring water 22-36 mg/l hardness
Procedure: as §1

Aquatic olgochaete = test: Static bioassay in invertebrates (Table 2); assay type: in vivo; conditions: Tubifex tubifex, tech, 17 C, limed spring water 22-36 mg/l hardness
Procedure: as §1

Snail (Physa sp.) = test: Static bioassay in invertebrates (Table 2); assay type: in vivo; conditions: tech, 17 C, limed spring water 22-36 mg/l hardness
Procedure: as §1

Green sunfish = test: Outdoor plastic pool test (Table 3); assay type: in vivo, Lepomis cyanellus; conditions: for % kill: 96 hour, 50% formulation (hydrochloride salt)
Procedure: N-(2-hydroxyethyl) digeranylamine was tested as a selective fish toxicant in outdoor pools stocked with various fish species and lined with black plastic using 50% water soluble formulations (hydrochloride salt). The formulation was added to each of four pools of 4,000-liter capacity at concentrations of 0.10, 0.15, 0.20, and 0.30 mg/liter. Another pool containing the same number, size, and species of fish served as a control. The test water had algal blooms, a pH of about 8.5, and a total hardness of about 200 mg/liter as CaCo3. The temperature was cool enough (15°-16°C.) to permit the use of trout.
(§2) Fish were obtained from state and federal hatcheries and maintained prior to testing by a trained fish culturist. Fish of total length 2-5 cm were used in laboratory tests while for outdoor tests small fish (4-6 cm in length) and larger carp and buffalo (Ictiobus cyprinellus) were used.
(§3) In all tests 10 fish of each were exposed to selective concentrations of the toxicant. Mortalities were observed and recorded at 1,2 and 6 hours on the first day and once daily thereafter, during 96 hour exposure.
Outdoor pool tests were conducted using 50% formulation of the toxicant N-(2-hydroxyethyl) digeranylamine as indicated in Example 8. […] If selective control of white sucker and common carp is desired in an environment which includes rainbow trout, one should employ an effective concentration of toxicant which is at least as great as 0.05 mg/liter but less than 0.1 mg/liter. As a practical fishery practice in the northern United States and Canada, rainbow trout are not usually stocked in bodies of water containing the common carp species; the habitat conditions including water temperature and available oxygen of these species are usually quite different. Common carp and rainbow trout have quite different oxygen and temperature requirements and these differences generally preclude both species cohabitating under natural conditions. In this case the useful range to control common carp and white sucker can be much broader, i.e. 0.1 to 0.3 mg/liter.

Fingernail clam = test: Static bioassay in invertebrates (Table 2); assay type: in vivo, Sphaerium sp.; conditions: 96 hours, tech, 17 C, limed spring water 22-36 mg/l hardness
Procedure: as §1

Dragonfly naiad = test: Static bioassay in invertebrates (Table 2); assay type: in vivo, Macromia sp.; conditions: 96 hours, tech, 17 C, soft reconstituted water 42 mg/l hardness
Procedure: as §1

Backswimmer = test: Static bioassay in invertebrates (Table 2); assay type: in vivo, Notonecta sp.; conditions: tech, 17 C, soft reconstituted water 42 mg/l hardness
Procedure: as §1

Brown trout = test: Laboratory fish toxicity test (Table 1); assay type: in vivo, Salmo trutta; conditions: tech, 12 C, soft water
Procedure: as §2, §3
Laboratory tests were also conducted in soft water 12° C. wherein the toxicant was evaluated against fifteen species of fish including both cold and warm water varieties. In Table 1, the LC 50 toxicity values for N-(2-hydroxyethyl) digeranylamine is shown for various species. LC50 is defined as the amount (mg/liter) of toxicant required to kill 50 percent of the particular fish species at 95% confidence interval.

Molecule `CC(C)=CCC/C(C)=C/CN(C/C=C(\C)CCC=C(C)C)CCO` [N-(2-hydroxyethyl) digeranylamine] has an LC50 (Snail (Pleurecera sp.); 28 hours) of 10.3 mg/L (≈ 30.9 µM), an LC50 (Snail (Pleurecera sp.); 96 hours) of 2.68 mg/L (≈ 8.03 µM) and an LC50 (Water flea; 1 hour) of 8 µg/mL (≈ 24 µM). The LC50 (Water flea; 3 hour) was 3.95 µg/mL (≈ 11.8 µM), the LC50 (Water flea; 6 hours) was 3 µg/mL (≈ 8.99 µM) and the LC50 (Water flea; 28 hours) was 0.8 µg/mL (≈ 2.4 µM). It also gave an LC50 (Water flea; 96 hours) of 0.16 µg/mL (≈ 0.48 µM), an LC50 (Seed shrimp or ostracod; 6 hours) of 3 µg/mL (≈ 8.99 µM) and an LC50 (Seed shrimp or ostracod; 28 hours) of 1 µg/mL (≈ 3 µM). It also gave an LC50 (Seed shrimp or ostracod; 96 hours) of 0.32 µg/mL (≈ 0.959 µM), an LC50 (Aquatic olgochaete; 1 hour) of 4.3 µg/mL (≈ 12.9 µM) and an LC50 (Aquatic olgochaete; 3 hour) of 2.64 µg/mL (≈ 7.91 µM). The LC50 (Aquatic olgochaete; 6 hours) was 2.35 µg/mL (≈ 7.05 µM), the LC50 (Aquatic olgochaete; 28 hours) was 0.28 µg/mL (≈ 0.839 µM) and the LC50 (Aquatic olgochaete; 96 hours) was 0.054 µg/mL (≈ 0.162 µM). For the same molecule, the LC50 (Snail (Physa sp.); 1 hour) was 6.30 mg/L (≈ 18.9 µM), the LC50 (Snail (Physa sp.); 3 hour) was 2.25 mg/L (≈ 6.75 µM) and the LC50 (Snail (Physa sp.); 6 hours) was 0.945 mg/L (≈ 2.83 µM). The LC50 (Snail (Physa sp.); 28 hours) was 0.580 mg/L (≈ 1.74 µM), the LC50 (Snail (Physa sp.); 96 hours) was 0.460 mg/L (≈ 1.38 µM) and the “% kill” value (Green sunfish; 0.10 mg/l) was 0%. For the same molecule, the “% kill” value (Green sunfish; 0.15 mg/l) was 0%, the “% kill” value (Green sunfish; 0.20 mg/l) was 0% and the “% kill” value (Green sunfish; 0.30 mg/l) was 0%. For the same molecule, the “survival (in words)” value (Green sunfish; green sunfish, 0.3 mg/liter, 50% formulation) was “complete survival”, the LC50 (Fingernail clam) was 11.5 mg/L (≈ 34.5 µM) and the LC50 (Dragonfly naiad) was 2.00 mg/L (≈ 6 µM). It also gave an LC50 (Backswimmer; 1 hour) of 9.15 mg/L (≈ 27.4 µM), an LC50 (Backswimmer; 3 hour) of 8.35 mg/L (≈ 25 µM) and an LC50 (Backswimmer; 6 hours) of 8.30 mg/L (≈ 24.9 µM). The LC50 (Backswimmer; 28 hours) was 4.90 mg/L (≈ 14.7 µM), the LC50 (Backswimmer; 96 hours) was 3.45 mg/L (≈ 10.3 µM) and the LC50 (Brown trout; 3 hours) was 0.0955 mg/L (≈ 0.286 µM). The LC50 (Brown trout; 6 hours) was 0.0742 mg/L (≈ 0.222 µM), the LC50 (Brown trout; 24 hours) was 0.0700 mg/L (≈ 0.21 µM) and the LC50 (Brown trout; 96 hours) was 0.0647 mg/L (≈ 0.194 µM).
